# Experiments:
# [1] = tested on: human peripheral blood-derived TAMs; experiment: Polarization test of human peripheral blood-derived TAMs (TNF-α ELISA); type: cell-based; details: 30 μM in terms of Telratolimod, 2 days incubation, culture supernatant
# Procedure: (§1) Human peripheral blood-derived CD14-positive monocytes that had been cryopreserved in advance were awake and seeded in a 24-well tissue culture plate at 2×10^5 cells/well in 500 μL of basal medium (RPMI, 10% fetal bovine serum, 50 ng/mL M-CSF) and cultured for 3 days in a 37° C., 5% CO2 incubator, after which 500 μL of basal medium was further added, and the cells were cultured for 3 days. The medium was then replaced with 500 μL of TAM differentiation induction medium prepared by adding 10% fetal bovine serum, 50 ng/mL IL-4, 50 ng/mL IL-6, 50 ng/mL IL-10, 50 ng/mL IL-13, and 5% human AB type male donor defibrinated serum (Veritas) to a separately prepared culture supernatant of human cancer cells, and the cells were cultured for 2 days.
# A Telratolimod solution or CHP:Telratolimod solution adjusted to a final concentration of 30 μM in terms of Telratolimod was added to the TAM prepared in Test Example 1, followed by incubation for 2 days, and TNF-α in the culture supernatant was measured by ELISA (BioLegend). The control was supplemented with only medium.
# [2] = tested on: mouse colon cancer cell line MC38; experiment: Antitumor evaluation in mouse allogeneic tumor transplantation model (1); type: in vivo, mice (C57BL/6JJmsSlc, female); details: MC38, 84.5 μg Telratolimod i.v. on days 7, 9, 11, 14, 16, 18; day 19
# Procedure: A mouse allogeneic tumor transplantation model was prepared by intradermally administering 10^6 cells of the mouse colon cancer cell line MC38 into the dorsal skin of mice (C57BL/6JJmsSlc, female). Mice on day 7 after cell administration were used. 84.5 μg of CHP:Telratolimod prepared in Example 2 or Telratolimod dissolved in a solubilizing solvent (17.1% polyethylene glycol 300, 4.3% Tween 80, and 8.6% polyoxyethylene hydrogenated castor oil) was administered via tail vein injection, and changes in the concentration of Telratolimod in the blood were measured. Blood was collected from 5 mice per group. After each test drug was administered via tail vein injection, 80 μL of isopropyl alcohol was added to 20 μL of serum collected after 1 minute, 30 minutes, 1 hour, 2 hours, and 6 hours, and bead crushing was performed for 1 minute using a 5 mm diameter stainless steel ball. […] The collected supernatant was analyzed by LS-MS/MS to measure the Telratolimod concentration. […]
# An MC38 mouse allogeneic tumor transplantation model was prepared in the same manner as in Test Example 4. […] Tumor sizes were measured on days 7, 9, 11, 14, 16, 18, and 19. The tumor volume was calculated by (long axis×short axis×short axis)/2. […]
# [3] = tested on: macrophages infiltrating into the tumors (MC38); experiment: Evaluation of TAM polarization in mouse allogeneic tumor transplantation model; type: in vivo, mice; details: MC38, 84.5 μg i.v. on days 7, 9, 11; tumors 1 day after final administration; flow cytometry
# Procedure: An MC38 mouse allogeneic tumor transplantation model was prepared in the same manner as in Test Example 6, and on days 7, 9, and 11 after cell transplantation, the CHP:Telratolimod solution prepared in Example 2 and the Telratolimod solution prepared in Test Example 4 were each administered via tail vein injection to 5 mice per group (amount of Telratolimod: 84.5 μg). One day after the final administration, the tumors were excised, and macrophages infiltrating into the tumors were measured by flow cytometry. Significance tests were performed using one-way ANOVA (*P<0.05, **P<0.01, ***P<0.001, ****P<0.0001).
# [4] = tested on: human peripheral blood-derived M2-like macrophages; experiment: Polarization test of human peripheral blood-derived M2-like macrophages (cytokine bead assay); type: cell-based; details: 3 μM, 1 day, culture supernatant
# Procedure: as §1, with “M2-like macrophage” for “TAM”, “adding” for “adding 10% fetal bovine serum,”, “IL-10, and” for “IL-10,”, “IL-13” for “IL-13, and 5% human AB type male donor defibrinated serum (Veritas)”, “the basal medium,” for “a separately prepared culture supernatant of human cancer cells,”
# A Telratolimod solution or CHP:Telratolimod solution adjusted to a final concentration of 3 μM in terms of Telratolimod was added to the M2-like macrophages prepared in Test Example 11, followed by incubation for 1 day, and TNF-α, IL-1β, IL-6, IL-12p40 (p40 subunit of IL-12), IL-23, and CXCL10 in the culture supernatant were measured using a flow cytometry bead assay kit (LEGENDplex™, BioLegend). The control was supplemented with only medium.
# [5] = Blood concentration changes in mouse allogeneic tumor transplantation model; type: in vivo, mice (C57BL/6JJmsSlc, female); details: 84.5 μg via tail vein injection, MC38-bearing mice, serum 1 min to 6 hours
# Procedure: A mouse allogeneic tumor transplantation model was prepared by intradermally administering 10^6 cells of the mouse colon cancer cell line MC38 into the dorsal skin of mice (C57BL/6JJmsSlc, female). Mice on day 7 after cell administration were used. 84.5 μg of CHP:Telratolimod prepared in Example 2 or Telratolimod dissolved in a solubilizing solvent (17.1% polyethylene glycol 300, 4.3% Tween 80, and 8.6% polyoxyethylene hydrogenated castor oil) was administered via tail vein injection, and changes in the concentration of Telratolimod in the blood were measured. Blood was collected from 5 mice per group. After each test drug was administered via tail vein injection, 80 μL of isopropyl alcohol was added to 20 μL of serum collected after 1 minute, 30 minutes, 1 hour, 2 hours, and 6 hours, and bead crushing was performed for 1 minute using a 5 mm diameter stainless steel ball. Further, 400 μL of an 80% isopropyl alcohol and 20% acetonitrile solution was added and mixed, followed by sonication for 3 minutes, and centrifugation at 12000 g for 5 minutes to collect the supernatant. The collected supernatant was analyzed by LS-MS/MS to measure the Telratolimod concentration. […]
# reticulocytes = experiment: Blood test in mouse allogeneic tumor transplantation model; type: in vivo; details: 84.5 μg i.v. on days 7, 9, 11; blood 1 day after final administration
# Procedure: 10^6 cells of the mouse colorectal cancer cell line MC38 were administered intradermally into the dorsal skin of mice (C57BL/6JJmsSlc, female). After 7 days, 9 days, and 11 days, the Telratolimod solution prepared in Test Example 4 and the CHP:Telratolimod solution prepared in Example 2 were each administered (amount of Telratolimod: 84.5 μg) via tail vein injection to 5 mice per group. One day after the final administration, blood was collected, and changes in red blood cell and reticulocyte counts were measured. Significance tests were performed using one-way ANOVA (*P<0.05, **P<0.01, ***P<0.001, ****P<0.0001).
# [6] = tested on: human peripheral blood-derived TAMs (phagocytosis of HeLa cells); experiment: Cancer cell phagocytosis test of human peripheral blood-derived TAMs; type: cell-based; details: 10 μM in terms of Telratolimod, 2 days, doxorubicin-treated HeLa cells, flow cytometry
# Procedure: HeLa cells were labeled with fluorescent label 1 (CellTracker Green CMTPX Dye, ThermoFisher) for 30 minutes, then washed twice with PBS(−), and cultured overnight in medium (RPMI supplemented with 10% fetal bovine serum) containing 1.25 μM doxorubicin.
# (§2) TAMs were prepared in the same manner as in Test Example 1, and Telratolimod or CHP:Telratolimod adjusted to a final concentration of 10 μM in terms of Telratolimod was added to the basal medium, followed by incubation for 2 days. After labeling with fluorescent labeling agent 2 (CellTracker Red CMTPX Dye, ThermoFisher) for 30 minutes, the cells were washed twice with PBS(−). The doxorubicin-treated HeLa cells were added at a half ratio to the TAMs and co-cultured overnight. The cells were then harvested, and the number of cells co-positive for fluorescent labels 1 and 2 was determined by flow cytometry. The control was supplemented with only medium.
# [7] = tested on: human peripheral blood-derived M2-like macrophages (phagocytosis of HeLa cells); experiment: Cancer cell phagocytosis test of human peripheral blood-derived M2-like macrophages; type: cell-based; details: 10 μM in terms of Telratolimod, 1 day, flow cytometry
# Procedure: HeLa cells were labeled with fluorescent label 1 (CellTracker Green CMTPX Dye, ThermoFisher) for 30 minutes, then washed twice with PBS(−), and cultured overnight in medium (RPMI supplemented with 10% fetal bovine serum) containing 2.5 μM doxorubicin.
# as §2, with “Telratolimod” for “TAMs were prepared in the same manner as in Test Example 1, and Telratolimod”, “and the M2-like macrophages prepared in Test Example 11 were incubated” for “followed by incubation”, “1 day.” for “2 days.”, “The” for “The doxorubicin-treated”, “M2-like macrophages” for “TAMs”
# [8] = Examination of encapsulation of TLR7 and TLR8 agonists in CHP nanogel (Example 1); type: physicochemical; details: CHP in 6 M urea in PBS(−), stepwise dialysis against PBS(−)
# Procedure: Nine TLR7 and TLR8 agonists (Telratolimod, Motolimod, Vesatolimod, Resiquimod, Imiquimod, CL075, CU-CPT17e, CU-CPT9a, and PF-4878691) were examined for whether they could be encapsulated in CHP nanogel. CHP was dissolved in a 6 M urea solution in PBS(−), and a compound solution was added thereto. Then, stepwise dialysis was performed against PBS(−).
# cytokines in serum = experiment: Evaluation of cytokine release in mouse allogeneic tumor transplantation model; type: in vivo, mice (C57BL/6JJmsSlc, female); details: 84.5 μg i.v., blood after 2 hours, MC38-bearing mice
# Procedure: The allograft model mice used were 10 days after 10^6 cells of the mouse colorectal cancer cell line MC38 were administered intradermally into the dorsal skin of mice (C57BL/6JJmsSlc, female). The Telratolimod solution prepared in Test Example 4 and the CHP:Telratolimod solution prepared in Example 2 were each administered (amount of Telratolimod: 84.5 μg) via tail vein injection to 5 mice per group, and blood was collected after 2 hours. The serum was obtained by centrifugation, and changes in the amount of cytokines were measured using LEGENDplex Mouse Inflammation Panel (BioLegend). Significance tests were performed using one-way ANOVA (*P<0.05, **P<0.01, ***P<0.001, ****P<0.0001).
# [9] = tested on: mouse colorectal cancer cell line CT26; experiment: Antitumor evaluation in mouse allogeneic tumor transplantation model (2); type: in vivo, mice (BALB/cCrSlc, female); details: Telratolimod 42 μg i.v. days 7, 9, 11, 14, 16, 18, anti-PD-1 antibody 100 μg i.p. days 7, 11, 14, 18
# Procedure: A mouse allogeneic tumor transplantation model was prepared by intradermally administering 10^6 cells of the mouse colorectal cancer cell line CT26 into the dorsal skin of mice (BALB/cCrSlc, female). On days 7, 9, 11, 14, 16, and 18 after cell transplantation, the CHP:Telratolimod solution prepared in Example 2 and the Telratolimod solution prepared in Test Example 4 were each administered via tail vein injection, and on days 7, 11, 14, and 18 after cell transplantation, an anti-PD-1 antibody (RMP1-14, Bio X Cell) solution was administered intraperitoneally, to 5 mice per group (amount of Telratolimod: 42 μg, amount of anti-PD-1 antibody: 100 μg). One group received a combination of the CHP:Telratolimod solution and the anti-PD-1 antibody. Tumor sizes were measured on days 7, 9, 11, 14, 16, 18, and 21. The tumor volume was calculated by (long axis×short axis×short axis)/2. The negative control is an untreated group.
compound,measurement,setting,value
CCCCCCCCCCCCCCCCCC(=O)NCCCCOn1c(CCCC)nc2c(N)nc3ccccc3c21 [Telratolimod],TNF-α,[1],700 pg/mL
same,growth inhibition compared to the solvent control,[2],49%
same,expression of ARG1 (M2-like macrophage marker),[3],tended to decrease
same,expression of iNOS (M1-like macrophage marker),[3],significantly increased
same,CXCL10,[4],140 ± 20 pg/mL
same,IL-1β,[4],2.3 ± 0.64 pg/mL
same,IL-6,[4],3100 ± 380 pg/mL
same,IL-12p40,[4],59 ± 22 pg/mL
same,IL-23,[4],1.4 ± 0.35 pg/mL
same,TNF-α,[4],40 ± 7.3 pg/mL
same,blood concentration of Telratolimod over time,[5],rapidly decreased within 30 minutes after administration
same,change in reticulocytes (bone marrow toxicity indicator),reticulocytes,significant decrease
same,Phagocytosis rate,[6],5.5%
same,Phagocytosis rate,[7],9.7%
same,whether the compound could be encapsulated in CHP nanogel and formed into a solution,[8],could be stably encapsulated in the CHP nanogel and formed into a solution
same,IFN-β in serum,cytokines in serum,rapid increases
same,IL-6 in serum,cytokines in serum,rapid increases
same,MCP-1 in serum,cytokines in serum,rapid increases
same,antitumor effect (tumor volume),[9],limited
